Measured values from patent US20200375987A1, “METALLO-BETA-LACTAMASE INHIBITORS AND METHODS OF USE THEREOF” (priority 2018, published 2020).

Legend:
VIM-1 = VIM-1 (Pseudomonas aeruginosa, UniProt A0A0F7KYQ8); assay: Enzyme activity: determination of IC50, fluorescence assay with CCF2-FA substrate (VIM-1); type: biochemical; details: 30 pM enzyme, 1.25 μM CCF2-FA, 2 hours at 25° C.; read-out: VIM1 IC50
Procedure: (§1) The Class B enzyme activities were measured in the presence of the test inhibitor in a fluorescence assay against a commercially available substrate consisting of a cephalosporin core linking 7-hydroxycoumarin to fluorescein (CCF2-FA). The enzyme (NDM-1, IMP-1 or VIM-1) and the substrate were diluted in 100 mM KH2PO4 buffer (pH 7) containing 0.005% Tween-20 and 10 μM ZnSO4. In the assay, the final concentration of enzyme was 1 pM, 2 pM and 30 pM for NDM-1, IMP-1 and VIM-1, respectively, and the final concentration of CCF2-FA was 1.25 μM. The test inhibitor was dissolved in dimethylsulfoxide and diluted 1:50 in the assay, resulting in a final concentration range of 20 μM to 0.00063 μM. In a 384-well microplate, the test inhibitor was incubated with the metallo-β-lactamase enzyme and the substrate for 2 hours at 25° C. Fluorescence at 460 nm following excitation at 405 nm was measured. The IC50 value was determined from semi-logarithmic plots of enzyme inhibition versus inhibitor concentration, with a curve generated using a 4-parameter fit.

VIM-2 = VIM-2 (Escherichia coli, UniProt Q5U7L7); assay: Enzyme activity: determination of IC50 (VIM-2); type: biochemical; details: read-out: VIM2 IC50
[1] = tested on: P. aeruginosa MB9798 (efflux WT, IMP-1); assay: Efflux: concentration of MBL inhibitor restoring susceptibility to imipenem (MITC95), efflux+ strain; type: cell-based, Pseudomonas aeruginosa; details: imipenem at 2 μg/mL in the presence of a class A, C, D serine β-lactamase inhibitor closely related to relebactam
Excerpt: (§2) In order to assess the contribution of efflux to lack of whole cell inhibition of metallo-beta-lactamase inhibitors of formula I, tool strains were constructed. The strain background is Pseudomonas aeruginosa PAO1. A wild-type (MB5919) and an isogenic strain in which multiple efflux pumps have been disrupted genetically were used. The MBL IMP-1, obtained from a clinical isolate was introduced into the strain pair by the following process:
(§3) Plasmid DNA (encoding IMP-1) was extracted from CL 5673 (IMP-1, P. aeruginosa clinical strain) by standard techniques. The plasmid DNA was transformed into parental MB5919 (oprD+, efflux+, inducible AmpC) and MB5890 (oprD+, efflux−, inducible AmpC) isogenic strains by electroporation. These transformed strains were plated onto cation-adjusted Muller-Hinton agar plates containing ceftazidime at 32 μg/mL (MB5919) and 16 μg/mL (MB5890) to select for those cells in which the IMP-1-expressing plasmid was introduced successfully, resulting in resistance to ceftazidime. Agarose-gel electrophoresis of PCR product for IMP-1 from the successful transformants was used to compare to control and to the original strain from which the plasmid was obtained, confirming transfer of the IMP-1 gene (data not shown).
(§4) The strain set was then used as a pair to determine the effect of metallo-β-lactamase inhibitors of Formula Ion the MIC of imipenem and/or ceftazidime. A fixed concentration of antibiotic is included in standard microbroth MIC tests, usually at the CLSI breakpoint concentration. A fixed amount of a class A/C beta-lactamase inhibitor is also included to inhibit the resident Pseudomonas AmpC enzyme. A serial titration of the metallo-β-lactamase inhibitor was included and the concentration of metallo-β-lactamase inhibitor which restores susceptibility of the strain to the included antibiotic was recorded. That concentration of metallo-β-lactamase inhibitor was then compared between the two strains to determine the fold difference between the efflux+(MB9798) and efflux−(MB9799) strains, which indicates n the extent to which the MBLi is subject to efflux.

[2] = tested on: P. aeruginosa MB9799 (efflux mutant, IMP-1); assay: Efflux: concentration of MBL inhibitor restoring susceptibility to imipenem (MITC95), efflux− strain; type: cell-based, Pseudomonas aeruginosa; details: imipenem at 2 μg/mL in the presence of a class A, C, D serine β-lactamase inhibitor closely related to relebactam
Excerpt: as §2, §3, §4

IMP-1 = IMP-1 (Serratia marcescens, UniProt P52699); assay: Enzyme activity: determination of IC50, fluorescence assay with CCF2-FA substrate (IMP-1); type: biochemical; details: 2 pM enzyme, 1.25 μM CCF2-FA, 2 hours at 25° C.; read-out: IMP1 IC50
Procedure: as §1

[3] = tested on: Klebsiella pneumoniae expressing VIM-1 (IHMA599644); assay: Antibiotic potentiation activity: synergistic concentration (MITC95) with imipenem; type: cell-based; details: imipenem 1 μg/mL; lowest concentration inhibiting 95% of growth; 35° C., 22-24 hours
Procedure: (§5) The bacterial strains tested included the clinical strains Escherichia coli expressing NDM-1 (CLB30005, CLB30016), Serratia marcescens expressing IMP-1 (CL5741), and Klebsiella pneumoniae expressing VIM-1 (IHMA599644). Inhibitor activity was measured in the presence and absence of imipenem in a 384-well microplate.
(§6) The clinical strains CLB30016, CL5741 and IHMA599644 were grown on trypticase soy agar containing 5% sheep's blood. The bacteria on agar plates were incubated at 35° C. with humidity overnight. The following day, individual colonies from each clinical strain were picked and resuspended in 5 mL saline to attain an OD600 of 0.14, 0.11, 0.15 and 0.13, for CLB30016, CL5741 and IHMA599644, respectively. These were further diluted 1:100 into 1.1× CAMHB and used to inoculate the test wells as described below.
(§7) Imipenem in 10 mM 3-(N-morpholino)propanesulfonic acid (MOPS, pH 7) was stored in single use aliquots at −80° C. […] On the day of the assay, 4 μl of antibiotic was added to 45 μl of bacteria followed by 1 μl of test compound and mixed by pipetting and with an orbital shaker. The concentration of antibiotic used in the assay was 1 μg/mL. Microplates were covered and incubated at 35° C. for 22 hours to 24 hours. At the end of the incubation, absorbance was determined using a spectrophotometer. The synergistic concentration of MBLI was determined by identifying the lowest concentration of test compound in the presence of a given concentration of antibiotic that was required to inhibit 95% of the growth of the bacteria. The results for Examples 1-209 are reported in Table 1, expressed as the concentration of compound that potentiated the action of antibiotic (imipenem) affecting 95% inhibition of bacterial growth (MITC95).

[4] = tested on: Serratia marcescens expressing IMP-1 (CL5741); assay: as above; type: cell-based; details: imipenem 1 μg/mL; lowest concentration inhibiting 95% of growth; 35° C., 22-24 hours
Procedure: as §5, §6, §7

[5] = tested on: Escherichia coli expressing NDM-1 (CLB30016); assay: as above; type: cell-based; details: imipenem 1 μg/mL; lowest concentration inhibiting 95% of growth; 35° C., 22-24 hours
Procedure: as §5, §6, §7

NDM-1 = NDM-1 (Klebsiella pneumoniae, UniProt C7C422); assay: Enzyme activity: determination of IC50, fluorescence assay with CCF2-FA substrate (NDM-1); type: biochemical; details: 1 pM enzyme, 1.25 μM CCF2-FA, 2 hours at 25° C.; read-out: NDM1 IC50
Procedure: as §1

Chain of NDM-1 (C7C422 29-270, looked up, species assumed): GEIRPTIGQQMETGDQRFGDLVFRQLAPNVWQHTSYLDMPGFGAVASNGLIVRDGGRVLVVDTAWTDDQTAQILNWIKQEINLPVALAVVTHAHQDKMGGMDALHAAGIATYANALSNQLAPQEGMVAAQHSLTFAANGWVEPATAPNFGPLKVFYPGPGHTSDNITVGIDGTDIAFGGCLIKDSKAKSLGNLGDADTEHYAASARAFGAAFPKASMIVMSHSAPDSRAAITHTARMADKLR
Chain of IMP-1 (P52699 19-246, looked up, species assumed): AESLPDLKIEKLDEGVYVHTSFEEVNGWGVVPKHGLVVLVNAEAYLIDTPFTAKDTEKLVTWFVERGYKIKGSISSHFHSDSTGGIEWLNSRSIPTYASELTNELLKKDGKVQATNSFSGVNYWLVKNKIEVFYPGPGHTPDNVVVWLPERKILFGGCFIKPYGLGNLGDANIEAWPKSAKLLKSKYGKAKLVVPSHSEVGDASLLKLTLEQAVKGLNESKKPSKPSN

NS(=O)(=O)c1c(S(=O)(=O)N[C@@H]2CCNC2)ccc(N2CCCn3ncnc32)c1-c1nnn[nH]1 [Example 8, (R)-4-(6,7-dihydro-[1,2,4]triazolo[1,5-a]pyrimidin-4(5H)-yl)-N1-(pyrrolidin-3-yl)-3-(1H-tetrazol-5-yl)benzene-1,2-disulfonamide]
IC50 (VIM-1): 0.2 nM
IC50 (VIM-2): 1.09 nM
MB9798 MITC95 P. aeruginosa Efflux WT [1]: 3.13 µM
MB9799 MITC95 P. aeruginosa Efflux Mutant [2]: 6.25 µM
IC50 (IMP-1): 6.63 nM
IHMA599644 K.pneumoniae MITC95 uM VIM [3]: 12.50 µM
CL5741 S.marcescens MITC95 uM IMP [4]: 6.25 µM
CLB30016 E.coli MITC95 NDM [5]: 3.13 µM
IC50 (NDM-1): 0.47 nM

NS(=O)(=O)c1c(S(=O)(=O)N[C@@H]2CCNC2)ccc(N2CCn3ccnc3C2)c1-c1nnn[nH]1 [Example 9, (R)-4-(5,6-dihydroimidazo[1,2-a]pyrazin-7(8H)-yl)-N1-(pyrrolidin-3-yl)-3-(1H-tetrazol-5-yl)benzene-12-disulfonamide]
IC50 (VIM-1): 0.1 nM
IC50 (VIM-2): 0.49 nM
MB9798 MITC95 P. aeruginosa Efflux WT [1]: 1.56 µM
MB9799 MITC95 P. aeruginosa Efflux Mutant [2]: 0.78 µM
IC50 (IMP-1): 2.17 nM
IHMA599644 K.pneumoniae MITC95 uM VIM [3]: 1.56 µM
CL5741 S.marcescens MITC95 uM IMP [4]: 0.20 µM
CLB30016 E.coli MITC95 NDM [5]: 0.39 µM
IC50 (NDM-1): 0.48 nM

NCC(CN)NS(=O)(=O)c1ccc(N2CCn3ccnc3C2)c(-c2nn[nH]n2)c1S(N)(=O)=O [Example 10, N1-(1,3-diaminopropan-2-yl)-4-(5,6-dihydroimidazo[1,2-a]pyrazin-7(8H)-yl)-3-(2H-tetrazol-5-yl)benzene-1,2-disulfonamide]
IC50 (VIM-1): 0.25 nM
IC50 (VIM-2): 0.99 nM
MB9798 MITC95 P. aeruginosa Efflux WT [1]: 3.13 µM
MB9799 MITC95 P. aeruginosa Efflux Mutant [2]: 1.56 µM
IC50 (IMP-1): 2.96 nM
IHMA599644 K.pneumoniae MITC95 uM VIM [3]: 1.56 µM
CL5741 S.marcescens MITC95 uM IMP [4]: 0.39 µM
CLB30016 E.coli MITC95 NDM [5]: 0.10 µM
IC50 (NDM-1): 1.17 nM

NCC(CN)NS(=O)(=O)c1ccc(N2CCCn3ccnc32)c(-c2nn[nH]n2)c1S(N)(=O)=O [Example 11, N1-(1,3-diaminopropan-2-yl)-4-(6,7-dihydroimidazo[1,2-a]pyrimidin-8(5H)-yl)-3-(2H-tetrazol-5-yl)benzene-1,2-disulfonamide]
IC50 (VIM-1): 1.26 nM
IC50 (VIM-2): 3.71 nM
MB9798 MITC95 P. aeruginosa Efflux WT [1]: 2.34 µM
MB9799 MITC95 P. aeruginosa Efflux Mutant [2]: 1.17 µM
IC50 (IMP-1): 4.55 nM
IHMA599644 K.pneumoniae MITC95 uM VIM [3]: 1.56 µM
CL5741 S.marcescens MITC95 uM IMP [4]: 0.78 µM
CLB30016 E.coli MITC95 NDM [5]: 0.20 µM
IC50 (NDM-1): 1.95 nM

NCCNS(=O)(=O)c1ccc(N2CCCn3ccnc32)c(-c2nn[nH]n2)c1S(N)(=O)=O [Example 12, N1-(2-aminoethyl)-4-(6,7-dihydroimidazo[1,2-a]pyrimidin-8(5H)-yl)-3-(2H-tetrazol-5-yl)benzene-1,2-disulfonamide]
IC50 (VIM-1): 0.6 nM
IC50 (VIM-2): 2.17 nM
MB9798 MITC95 P. aeruginosa Efflux WT [1]: 0.78 µM
MB9799 MITC95 P. aeruginosa Efflux Mutant [2]: 0.20 µM
IC50 (IMP-1): 4.69 nM
IHMA599644 K.pneumoniae MITC95 uM VIM [3]: 0.39 µM
CL5741 S.marcescens MITC95 uM IMP [4]: 0.20 µM
CLB30016 E.coli MITC95 NDM [5]: 0.05 µM
IC50 (NDM-1): 1.58 nM

NS(=O)(=O)c1c(S(=O)(=O)N[C@@H]2CCNC2)ccc(N2CCCn3ccnc32)c1-c1nnn[nH]1 [Example 13, (R)-4-(6,7-dihydroimidazo[1,2-a]pyrimidin-8(5H)-yl)-N1-(pyrrolidin-3-yl)-3-(1H-tetrazol-5-yl)benzene-1,2-disulfonamide]
IC50 (VIM-1): 0.39 nM
IC50 (VIM-2): 2.16 nM
MB9798 MITC95 P. aeruginosa Efflux WT [1]: 1.56 µM
MB9799 MITC95 P. aeruginosa Efflux Mutant [2]: 0.78 µM
IC50 (IMP-1): 9.7 nM
IHMA599644 K.pneumoniae MITC95 uM VIM [3]: 0.78 µM
CL5741 S.marcescens MITC95 uM IMP [4]: 0.39 µM
CLB30016 E.coli MITC95 NDM [5]: 0.20 µM
IC50 (NDM-1): 0.77 nM

C[C@H](N)CNS(=O)(=O)c1ccc(N2CCCn3ccnc32)c(-c2nn[nH]n2)c1S(N)(=O)=O [Example 14, (S)-N1-(2-aminopropyl)-4-(6,7-dihydroimidazo[1,2-a]pyrimidin-8(5H)-yl)-3-(2H-tetrazol-5-yl)benzene-1,2-disulfonamide]
IC50 (VIM-1): 0.97 nM
IC50 (VIM-2): 2.6 nM
MB9798 MITC95 P. aeruginosa Efflux WT [1]: 3.13 µM
MB9799 MITC95 P. aeruginosa Efflux Mutant [2]: 0.78 µM
IC50 (IMP-1): 6.32 nM
IHMA599644 K.pneumoniae MITC95 uM VIM [3]: 1.56 µM
CL5741 S.marcescens MITC95 uM IMP [4]: 0.39 µM
CLB30016 E.coli MITC95 NDM [5]: 0.10 µM
IC50 (NDM-1): 1.61 nM

NC[C@H](CO)NS(=O)(=O)c1ccc(N2CCCn3ccnc32)c(-c2nnn[nH]2)c1S(N)(=O)=O [Example 15, (R)-N1-(1-amino-3-hydroxypropan-2-yl)-4-(6,7-dihydroimidazo[1,2-a]pyrimidin-8(5H)-yl)-3-(1H-tetrazol-5-yl)benzene-1,2-disulfonamide]
IC50 (VIM-1): 1 nM
IC50 (VIM-2): 2.66 nM
MB9798 MITC95 P. aeruginosa Efflux WT [1]: 3.13 µM
MB9799 MITC95 P. aeruginosa Efflux Mutant [2]: 0.78 µM
IC50 (IMP-1): 8.9 nM
IHMA599644 K.pneumoniae MITC95 uM VIM [3]: 1.56 µM
CL5741 S.marcescens MITC95 uM IMP [4]: 0.39 µM
CLB30016 E.coli MITC95 NDM [5]: 0.20 µM
IC50 (NDM-1): 2.35 nM
